Legend:
[1] = molecular target: AP2-associated protein kinase 1 (Homo sapiens) (UniProt Q2M2I8); details: Compound concentration 1000.0 nM
[2] = tested on: Tyrosine-protein kinase ABL1 (Homo sapiens), P00519 [E255K]; details: Compound concentration 1000.0 nM
[3] = molecular target: Citron Rho-interacting kinase (Homo sapiens) (UniProt O14578); details: Compound concentration 1000.0 nM
[4] = molecular target: Casein kinase I isoform alpha-like (Homo sapiens) (UniProt Q8N752); details: Compound concentration 1000.0 nM
[5] = molecular target: Casein kinase II subunit alpha' (Homo sapiens) (UniProt P19784); details: Compound concentration 1000.0 nM
[6] = molecular target: Dual specificity tyrosine-phosphorylation-regulated kinase 1B (Homo sapiens) (UniProt Q9Y463); details: Compound concentration 1000.0 nM
[7] = molecular target: Fibroblast growth factor receptor 1 (Homo sapiens) (UniProt P11362); details: Compound concentration 1000.0 nM
[8] = tested on: Receptor-type tyrosine-protein kinase FLT3 (Homo sapiens), P36888 [UNDEFINED MUTATION]; details: Compound concentration 1000.0 nM
Sequence of Receptor-type tyrosine-protein kinase FLT3 (Homo sapiens), P36888 [UNDEFINED MUTATION] (P36888 whole entry, looked up, change not shown): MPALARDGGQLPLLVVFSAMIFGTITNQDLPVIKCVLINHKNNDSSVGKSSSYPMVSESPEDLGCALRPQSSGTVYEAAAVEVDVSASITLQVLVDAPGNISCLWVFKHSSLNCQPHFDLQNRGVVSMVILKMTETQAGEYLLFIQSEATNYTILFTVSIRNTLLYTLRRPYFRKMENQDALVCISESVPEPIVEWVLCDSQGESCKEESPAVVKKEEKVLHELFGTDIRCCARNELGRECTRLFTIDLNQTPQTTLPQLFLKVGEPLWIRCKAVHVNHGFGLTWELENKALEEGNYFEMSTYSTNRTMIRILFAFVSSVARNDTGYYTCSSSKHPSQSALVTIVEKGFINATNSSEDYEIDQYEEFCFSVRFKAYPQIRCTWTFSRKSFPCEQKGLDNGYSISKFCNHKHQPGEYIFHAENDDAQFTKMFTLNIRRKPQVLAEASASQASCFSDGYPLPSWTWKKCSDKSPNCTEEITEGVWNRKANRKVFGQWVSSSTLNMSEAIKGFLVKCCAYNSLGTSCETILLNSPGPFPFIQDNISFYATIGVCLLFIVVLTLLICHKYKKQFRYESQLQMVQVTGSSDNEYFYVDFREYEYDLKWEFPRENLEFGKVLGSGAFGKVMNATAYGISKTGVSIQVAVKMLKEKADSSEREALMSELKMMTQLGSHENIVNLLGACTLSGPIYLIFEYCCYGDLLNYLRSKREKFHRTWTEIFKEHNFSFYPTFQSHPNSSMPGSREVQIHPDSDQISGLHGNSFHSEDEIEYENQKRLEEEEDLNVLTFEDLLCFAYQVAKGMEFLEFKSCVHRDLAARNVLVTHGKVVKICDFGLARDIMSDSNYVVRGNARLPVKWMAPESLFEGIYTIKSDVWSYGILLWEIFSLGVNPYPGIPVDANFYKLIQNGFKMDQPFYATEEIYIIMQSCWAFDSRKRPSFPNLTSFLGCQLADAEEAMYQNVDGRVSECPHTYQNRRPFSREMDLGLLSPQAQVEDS

[9] = tested on: Receptor-type tyrosine-protein kinase FLT3 (Homo sapiens), P36888 [UNDEFINED MUTATION]; details: Compound concentration 1000.0 nM; remark: listed apart in the source
[10] = molecular target: G protein-coupled receptor kinase 3 (Homo sapiens) (UniProt P35626); details: Compound concentration 1000.0 nM
Sequence of G protein-coupled receptor kinase 3 (Homo sapiens) (P35626 whole entry): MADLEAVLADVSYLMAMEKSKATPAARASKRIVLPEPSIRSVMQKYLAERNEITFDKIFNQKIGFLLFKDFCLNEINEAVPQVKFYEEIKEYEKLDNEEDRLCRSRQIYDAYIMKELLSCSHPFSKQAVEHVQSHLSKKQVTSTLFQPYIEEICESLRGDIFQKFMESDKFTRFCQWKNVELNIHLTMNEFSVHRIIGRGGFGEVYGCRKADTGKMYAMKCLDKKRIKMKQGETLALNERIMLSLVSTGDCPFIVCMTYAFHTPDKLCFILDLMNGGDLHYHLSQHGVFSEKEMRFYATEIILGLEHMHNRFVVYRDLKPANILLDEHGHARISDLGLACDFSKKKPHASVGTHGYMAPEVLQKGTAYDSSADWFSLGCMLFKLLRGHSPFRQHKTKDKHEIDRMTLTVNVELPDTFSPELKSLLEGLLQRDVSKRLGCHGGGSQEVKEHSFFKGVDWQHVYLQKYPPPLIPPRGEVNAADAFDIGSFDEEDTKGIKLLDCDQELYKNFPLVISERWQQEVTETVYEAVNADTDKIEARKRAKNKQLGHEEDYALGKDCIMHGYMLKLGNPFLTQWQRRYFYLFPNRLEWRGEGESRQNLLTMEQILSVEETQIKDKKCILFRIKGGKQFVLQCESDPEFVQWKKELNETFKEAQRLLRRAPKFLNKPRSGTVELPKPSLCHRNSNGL

[11] = molecular target: Glycogen synthase kinase-3 alpha (Homo sapiens) (UniProt P49840); details: Compound concentration 1000.0 nM
[12] = molecular target: Serine/threonine-protein kinase LATS1 (Homo sapiens) (UniProt O95835); details: Compound concentration 1000.0 nM
Sequence of Serine/threonine-protein kinase LATS1 (Homo sapiens) (O95835 whole entry): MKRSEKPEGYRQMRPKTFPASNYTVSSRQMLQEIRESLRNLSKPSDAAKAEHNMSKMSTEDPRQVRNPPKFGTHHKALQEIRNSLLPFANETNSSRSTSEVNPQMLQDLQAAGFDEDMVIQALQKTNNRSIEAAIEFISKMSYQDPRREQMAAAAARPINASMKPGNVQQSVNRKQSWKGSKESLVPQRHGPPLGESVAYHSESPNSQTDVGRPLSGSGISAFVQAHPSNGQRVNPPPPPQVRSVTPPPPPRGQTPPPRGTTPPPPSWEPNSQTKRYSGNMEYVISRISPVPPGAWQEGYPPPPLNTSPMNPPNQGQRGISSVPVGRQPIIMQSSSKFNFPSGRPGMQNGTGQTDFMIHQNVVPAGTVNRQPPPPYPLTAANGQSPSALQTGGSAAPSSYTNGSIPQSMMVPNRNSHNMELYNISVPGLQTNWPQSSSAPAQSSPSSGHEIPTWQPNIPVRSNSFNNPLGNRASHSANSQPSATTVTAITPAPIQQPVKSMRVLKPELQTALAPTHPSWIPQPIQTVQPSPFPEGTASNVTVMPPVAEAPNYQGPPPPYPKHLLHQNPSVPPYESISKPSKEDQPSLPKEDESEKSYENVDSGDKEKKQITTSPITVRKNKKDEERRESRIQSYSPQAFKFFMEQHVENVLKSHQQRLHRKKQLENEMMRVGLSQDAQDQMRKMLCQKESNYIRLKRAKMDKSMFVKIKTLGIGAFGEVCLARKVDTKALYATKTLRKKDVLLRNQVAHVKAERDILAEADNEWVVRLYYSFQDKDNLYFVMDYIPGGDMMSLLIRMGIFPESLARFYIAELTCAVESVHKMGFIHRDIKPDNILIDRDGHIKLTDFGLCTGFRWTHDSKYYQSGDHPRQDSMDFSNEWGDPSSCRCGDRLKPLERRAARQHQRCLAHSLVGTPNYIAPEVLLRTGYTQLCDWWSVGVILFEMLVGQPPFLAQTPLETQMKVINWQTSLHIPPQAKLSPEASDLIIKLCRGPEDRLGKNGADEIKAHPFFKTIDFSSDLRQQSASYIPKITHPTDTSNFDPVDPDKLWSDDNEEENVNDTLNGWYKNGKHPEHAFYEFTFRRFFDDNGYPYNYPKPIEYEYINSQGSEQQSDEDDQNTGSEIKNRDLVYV

[13] = molecular target: Mitogen-activated protein kinase kinase kinase 3 (Homo sapiens) (UniProt Q99759); details: Compound concentration 1000.0 nM
[14] = molecular target: Dual specificity mitogen-activated protein kinase kinase 6 (Homo sapiens) (UniProt P52564); details: Compound concentration 1000.0 nM
[15] = molecular target: MAP kinase-interacting serine/threonine-protein kinase 1 (Homo sapiens) (UniProt Q9BUB5); details: Compound concentration 1000.0 nM
[16] = molecular target: Cyclin-dependent kinase 15 (Homo sapiens) (UniProt Q96Q40); details: Compound concentration 1000.0 nM
[17] = molecular target: Phosphatidylinositol 4-phosphate 5-kinase type-1 gamma (Homo sapiens) (UniProt O60331); details: Compound concentration 1000.0 nM
[18] = molecular target: Protein-tyrosine kinase 2-beta (Homo sapiens) (UniProt Q14289); details: Compound concentration 1000.0 nM
[19] = molecular target: RAF proto-oncogene serine/threonine-protein kinase (Homo sapiens) (UniProt P04049); details: Compound concentration 1000.0 nM
[20] = molecular target: Ribosomal protein S6 kinase alpha-3 (Homo sapiens) (UniProt P51812); details: Compound concentration 1000.0 nM
[21] = molecular target: Serine/threonine-protein kinase 16 (Homo sapiens) (UniProt O75716); details: Compound concentration 1000.0 nM
[22] = molecular target: Tyrosine-protein kinase TXK (Homo sapiens) (UniProt P42681); details: Compound concentration 1000.0 nM
[23] = molecular target: Mitogen-activated protein kinase kinase kinase 20 (Homo sapiens) (UniProt Q9NYL2); details: Compound concentration 1000.0 nM
[24] = molecular target: T1, 5-hydroxytryptamine receptor 1A (Homo sapiens) (UniProt P08908); details: Compound concentration 10.0 uM
T1 sequence (whole entry): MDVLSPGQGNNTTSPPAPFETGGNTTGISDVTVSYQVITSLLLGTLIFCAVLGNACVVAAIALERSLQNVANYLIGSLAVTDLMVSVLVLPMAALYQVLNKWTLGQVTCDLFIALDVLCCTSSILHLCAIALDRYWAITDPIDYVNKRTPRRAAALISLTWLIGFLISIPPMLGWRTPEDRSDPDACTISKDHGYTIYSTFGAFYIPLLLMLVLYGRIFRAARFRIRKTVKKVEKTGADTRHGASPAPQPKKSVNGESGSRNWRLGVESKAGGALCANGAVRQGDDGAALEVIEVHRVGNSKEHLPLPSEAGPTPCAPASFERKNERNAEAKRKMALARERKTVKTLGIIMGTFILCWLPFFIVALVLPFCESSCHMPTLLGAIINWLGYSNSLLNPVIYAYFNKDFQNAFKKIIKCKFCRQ

[25] = molecular target: T2, Alpha-2B adrenergic receptor (Homo sapiens) (UniProt P18089); details: Compound concentration 10.0 uM
T2 sequence (whole entry): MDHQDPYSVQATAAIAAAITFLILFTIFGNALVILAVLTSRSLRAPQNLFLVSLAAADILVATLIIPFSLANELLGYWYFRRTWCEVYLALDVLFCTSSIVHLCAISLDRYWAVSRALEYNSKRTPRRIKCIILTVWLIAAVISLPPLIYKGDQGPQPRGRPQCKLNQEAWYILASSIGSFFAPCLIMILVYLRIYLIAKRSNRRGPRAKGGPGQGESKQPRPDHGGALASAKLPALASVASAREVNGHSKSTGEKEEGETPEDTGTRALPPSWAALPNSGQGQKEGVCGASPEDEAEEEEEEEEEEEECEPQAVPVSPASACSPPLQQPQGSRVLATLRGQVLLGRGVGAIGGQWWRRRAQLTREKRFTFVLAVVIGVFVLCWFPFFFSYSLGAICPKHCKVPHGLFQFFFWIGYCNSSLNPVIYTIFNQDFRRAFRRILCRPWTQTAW

[26] = molecular target: T3, Muscarinic acetylcholine receptor M4 (Homo sapiens) (UniProt P08173); details: Compound concentration 10.0 uM
T3 sequence (whole entry): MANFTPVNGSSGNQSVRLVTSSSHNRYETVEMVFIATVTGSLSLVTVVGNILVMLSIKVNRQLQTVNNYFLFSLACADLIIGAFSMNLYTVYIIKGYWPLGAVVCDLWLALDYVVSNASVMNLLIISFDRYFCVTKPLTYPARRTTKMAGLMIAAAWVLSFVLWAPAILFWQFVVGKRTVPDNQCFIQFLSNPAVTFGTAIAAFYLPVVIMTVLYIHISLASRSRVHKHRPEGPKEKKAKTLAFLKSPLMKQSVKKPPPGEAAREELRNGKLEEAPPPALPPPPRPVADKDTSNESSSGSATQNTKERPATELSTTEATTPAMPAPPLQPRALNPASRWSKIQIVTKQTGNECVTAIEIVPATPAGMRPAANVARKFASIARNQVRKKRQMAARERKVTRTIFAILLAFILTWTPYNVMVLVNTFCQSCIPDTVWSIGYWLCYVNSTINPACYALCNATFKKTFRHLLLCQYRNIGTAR

Sequence of Citron Rho-interacting kinase (Homo sapiens) (O14578 whole entry, canonical isoform): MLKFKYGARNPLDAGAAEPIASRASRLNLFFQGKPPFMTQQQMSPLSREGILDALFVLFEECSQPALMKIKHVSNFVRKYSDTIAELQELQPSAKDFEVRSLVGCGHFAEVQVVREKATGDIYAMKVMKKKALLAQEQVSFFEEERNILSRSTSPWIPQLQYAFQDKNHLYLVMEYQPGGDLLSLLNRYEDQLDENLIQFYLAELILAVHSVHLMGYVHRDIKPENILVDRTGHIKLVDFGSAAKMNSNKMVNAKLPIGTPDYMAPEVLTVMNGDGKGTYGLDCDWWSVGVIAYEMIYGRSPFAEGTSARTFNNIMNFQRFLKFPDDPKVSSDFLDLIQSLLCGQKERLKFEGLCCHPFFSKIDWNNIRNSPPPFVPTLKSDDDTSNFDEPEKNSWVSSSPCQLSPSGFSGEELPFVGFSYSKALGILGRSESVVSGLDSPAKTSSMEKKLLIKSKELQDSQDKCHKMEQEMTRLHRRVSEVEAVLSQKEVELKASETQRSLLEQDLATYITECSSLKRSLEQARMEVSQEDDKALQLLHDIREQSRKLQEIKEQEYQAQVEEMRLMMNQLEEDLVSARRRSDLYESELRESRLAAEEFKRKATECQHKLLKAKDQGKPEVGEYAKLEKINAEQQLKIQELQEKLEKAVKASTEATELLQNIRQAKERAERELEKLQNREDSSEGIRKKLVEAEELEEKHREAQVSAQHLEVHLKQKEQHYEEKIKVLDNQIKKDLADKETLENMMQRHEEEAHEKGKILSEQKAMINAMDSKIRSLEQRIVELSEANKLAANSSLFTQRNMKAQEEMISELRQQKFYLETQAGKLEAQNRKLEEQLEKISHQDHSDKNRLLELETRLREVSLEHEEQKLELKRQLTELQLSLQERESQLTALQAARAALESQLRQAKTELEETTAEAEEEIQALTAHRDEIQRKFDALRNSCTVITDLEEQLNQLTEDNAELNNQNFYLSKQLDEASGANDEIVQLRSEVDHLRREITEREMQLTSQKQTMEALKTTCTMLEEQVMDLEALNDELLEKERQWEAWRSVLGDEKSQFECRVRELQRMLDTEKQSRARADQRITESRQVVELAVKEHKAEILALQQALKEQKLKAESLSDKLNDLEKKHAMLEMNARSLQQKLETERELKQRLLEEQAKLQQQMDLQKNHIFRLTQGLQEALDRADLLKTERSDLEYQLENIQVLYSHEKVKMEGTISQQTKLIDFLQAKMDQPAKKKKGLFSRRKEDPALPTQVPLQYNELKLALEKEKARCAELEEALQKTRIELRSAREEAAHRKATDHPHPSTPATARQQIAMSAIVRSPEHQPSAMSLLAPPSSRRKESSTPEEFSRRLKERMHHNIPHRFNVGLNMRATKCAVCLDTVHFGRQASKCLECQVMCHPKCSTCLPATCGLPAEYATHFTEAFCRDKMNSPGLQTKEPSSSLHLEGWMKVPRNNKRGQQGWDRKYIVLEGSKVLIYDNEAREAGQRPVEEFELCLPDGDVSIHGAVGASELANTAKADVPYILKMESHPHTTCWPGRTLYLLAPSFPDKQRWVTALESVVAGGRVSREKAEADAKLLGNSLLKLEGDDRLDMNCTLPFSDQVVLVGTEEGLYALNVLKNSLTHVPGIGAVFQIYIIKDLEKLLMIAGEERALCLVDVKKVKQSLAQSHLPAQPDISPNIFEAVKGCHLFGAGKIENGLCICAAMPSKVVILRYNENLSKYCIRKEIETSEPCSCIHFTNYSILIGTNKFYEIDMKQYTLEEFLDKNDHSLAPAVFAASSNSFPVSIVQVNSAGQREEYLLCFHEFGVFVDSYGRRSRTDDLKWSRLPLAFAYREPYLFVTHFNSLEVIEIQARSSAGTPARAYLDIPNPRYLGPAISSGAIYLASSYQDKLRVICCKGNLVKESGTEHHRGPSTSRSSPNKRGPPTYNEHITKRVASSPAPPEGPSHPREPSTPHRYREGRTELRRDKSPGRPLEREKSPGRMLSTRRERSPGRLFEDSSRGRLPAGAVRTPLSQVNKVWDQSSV

N#CC1(c2ccccn2)CCN(Cc2cc(C(=O)N3CCCC3)c(=O)n3ccccc23)CC1
inactive: residual activity [1] 100% | residual activity [2] 87% | residual activity [3] 99% | residual activity [4] 91% | residual activity [5] 98% | residual activity [6] 53% | residual activity [7] 93% | residual activity [8] 100% | residual activity [9] 90% | residual activity [10] 77% | residual activity [11] 72% | residual activity [12] 100% | residual activity [13] 92% | residual activity [14] 98% | residual activity [15] 100% | residual activity [16] 85% | residual activity [17] 68% | residual activity [18] 86% | residual activity [19] 100% | residual activity [20] 60% | residual activity [21] 100% | residual activity [22] 91% | residual activity [23] 95% | inhibition [24] 26.7% | inhibition [25] -2.99% | inhibition [26] -8.87%

N#CC1(c2ccccn2)CCN(Cc2cc(C(=O)O)c(=O)n3ccccc23)CC1 [MSD-M1PAM]
inactive: residual activity [1] 100% | residual activity [2] 100% | residual activity [3] 98% | residual activity [4] 100% | residual activity [5] 86% | residual activity [6] 98% | residual activity [7] 98% | residual activity [8] 92% | residual activity [9] 100% | residual activity [10] 95% | residual activity [11] 100% | residual activity [12] 100% | residual activity [13] 77% | residual activity [14] 99% | residual activity [15] 85% | residual activity [16] 100% | residual activity [17] 89% | residual activity [18] 100% | residual activity [19] 100% | residual activity [20] 81% | residual activity [21] 100% | residual activity [22] 100% | residual activity [23] 100% | inhibition [24] 21% | inhibition [25] -6.86% | inhibition [26] -2.36%

Source: ChEMBL document CHEMBL4507295 (2021)
